Results reported in US8012972B2, “Pyridinecarboxylic acid (2-aminophenyl) amide derivative having urea structure” (Santen Pharmaceutical Co., Ltd., priority 2007, dated 2011).

Tests used:
[1] = tested on: HDAC (HeLa nuclear extract); assay: Test for evaluation of HDAC inhibitory activity (HDAC Fluorimetric Assay/Drug Discovery Kit, Biomol); assay type: biochemical; conditions: final concentration of test compound 30 μM, rates of more than 100% are shown as 100%
Procedure: Using HDAC Fluorimetric Assay/Drug Discovery Kit (manufactured by Biomol), HDAC inhibitory activity of the present compounds was measured according to the protocol included with the kit. The kit contains Buffer, HeLa nuclear extract (includes HDAC), Substrate, Developer and Trichostatin A (an HDAC inhibitor).
A test compound was dissolved in dimethyl sulfoxide, whereby a 2 mg/mL solution was prepared. Then, the resulting solution was diluted with Buffer containing 5% dimethyl sulfoxide, whereby a 150 μM test compound solution was prepared.
1) To a 384-well culture plate, the test compound solution was added in an amount of 2 μL per well.
2) HeLa nuclear extract was diluted 30-fold with Buffer. The resulting solution was added in an amount of 3 μL per well and then, incubation was performed at 37° C. for 2 hours.
3) Substrate was diluted 500-fold with Buffer. […]
5) The fluorescence intensity of each well was measured using multilabel counter ARVO (manufactured by Wallac) with excitation at 360 nm and emission at 460 nm. […]
Enzyme inhibitory rate (%) was calculated using the following equation. (Enzyme Inhibitory Rate(%))=100×[1−{(Fluorescence Intensity of Test Compound Solution)−(Florescence Intensity of Blank)}/{(Florescence Intensity of Control)−(Florescence Intensity of Blank)}] […]

[2] = tested on: human trabecular meshwork cell line (TM-1 cells); assay: Effect of morphological change on trabecular meshwork cells (cell shape index, CSI); assay type: cell-based; conditions: final concentration 10 μM, 24 hours, control CSI 0.679, lower CSI indicates greater morphological change
Procedure: As a method for evaluating a cellular morphological change, an evaluation system using the cell shape index (hereinafter referred to as “CSI”) as an index has been reported in The Journal of Clinical Investigation, 103, 1141-1150 (1999). Therefore, according to the method described in the above document, an effect of morphological change of the present compounds on trabecular meshwork cells was evaluated.
A human trabecular meshwork cell line (hereinafter referred to as “TM-1 cells”) reported in Investigative Opthalmology & Visual Science, 43, 151-161 (2002) was used.
Culture medium 1: A reagent was prepared by adding fetal bovine serum (10%), L-glutamine (2 mM), amphotericin B (2.5 μg/mL), and gentamicin (25 μg/mL) to Dulbecco's Modified Eagle Medium (hereinafter referred to as “D-MEM”).
Culture medium 2: Fetal bovine serum (3%), L-glutamine (2 mM), amphotericin B (2.5 μg/mL), and gentamicin (25 μg/mL) were added to D-MEM. […]
10) Using Array Scan Vti HCS reader (manufactured by Cellomics), images of stained cells magnified with a 20-fold objective lens were captured in 80 fields (10 fields×8 wells) per test compound addition group.
11) CSI was calculated for each cell and an average value was obtained for each test compound addition group.
CSI was calculated using the following equation. […]

- Enzyme Inhibitory Rate (%) [1]: 100%
SMILES: Nc1ccccc1NC(=O)c1ccc(CN(CCCN2CCCCC2)C(=O)NCCc2ccccc2)cn1 [Compound 1-3]
- CSI [2]: 0.569
